# The source made the active and inactive calls.
# Columns and labels:
# [1] = biological target: DNA damage-inducible transcript 3 protein (Mus musculus, UniProt P35639); type: functional, Cricetulus griseus
# [2] = THP-1 cell cytotoxicity, dose response, cytotoxicity control for non-replicating M. tuberculosis project (AID 489025); type: functional
# [3] = loss of viability in HepG2 cells – cell-based, CellTiter-Glo, cherry-picked, cytotoxicity control for Shn3 inhibitor project, dose response (AID 624134); type: functional
# [4] = alpha-synuclein stem-loop luciferase translation blockers – H4 neuroglioma cells, luminescence, confirmation (AID 1988); type: functional, cell-based
# [5] = reduction of Shn3 3'UTR-driven luciferase in osteoblasts – cell-based, Clone20 osteoblasts, firefly luciferase, cherry-picked, dose response (AID 624132); type: functional;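 also: firefly luciferase luminescence from reporter carrying the Shn3 3'UTR in osteoblasts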
# [6] = HepG2 cell cytotoxicity, dose response, cytotoxicity control for non-replicating M. tuberculosis project (AID 489018); type: functional; details: Mycobacterium tuberculosis
# [7] = Vero E6 cell cytotoxicity, dose response, cytotoxicity control for non-replicating M. tuberculosis project, secondary assay (AID 492998); type: functional, VeroE6; details: Vero C1008
# [8] = non-specific 3'UTR reporter inhibition in Clone20-Shn3RL – cell-based, Renilla luciferase, cherry-picked, counter-screen for Shn3 inhibitor project, dose response (AID 624133); type: functional
# [9] = Luminescence Cell-Based Dose Response HTS to Identify Inhibitors of 5'UTR Stem-Loop Driven Prion Protein mRNA Translation in H4 Neuroglioblastoma Cells. [Related pubchem assays: 1827 (Project Summary), 1813 (Primary HTS)]; type: functional
# [10] = cells; type: functional
# [11] = luciferase reporter signal suppression in cells – H4 neuroglioma cells, luminescence, dose response (AID 1990); type: functional, cell-based
# [12] = system: HEK293; assay: cells; details: Homo sapiens;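 also: cells exposed to compound for 14 hours overnight before viability readout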
# [13] = biological target: Nucleotide-binding oligomerization domain-containing protein 2 (Homo sapiens, UniProt Q9HC29); assay: PubChem AID 2334; type: functional
# [14] = biological target: Tumor necrosis factor (Homo sapiens, UniProt P01375); assay: analog potency on TNFa NF-kB signaling – cell-based, revised, SAR follow-up (AID 2337); type: functional
# [15] = biological target: Nucleotide-binding oligomerization domain-containing protein 1 (Homo sapiens, UniProt Q9Y239); assay: blockers of NOD1 pathway activity – revised, SAR follow-up (AID 2333); type: functional
# [16] = biological target: Alkaline phosphatase, placental type (Homo sapiens, UniProt P05187); assay: human placental alkaline phosphatase inhibition – biochemical, luminescence, confirmation (AID 1512); type: functional
# [17] = biological target: T1, Alkaline phosphatase, tissue-nonspecific isozyme (Homo sapiens, UniProt P05186); assay: potency against alkaline phosphatase TNAP – biochemical, luminescent, dose response, SAR follow-up (AID 1056)
# T1 sequence (P05186 whole entry): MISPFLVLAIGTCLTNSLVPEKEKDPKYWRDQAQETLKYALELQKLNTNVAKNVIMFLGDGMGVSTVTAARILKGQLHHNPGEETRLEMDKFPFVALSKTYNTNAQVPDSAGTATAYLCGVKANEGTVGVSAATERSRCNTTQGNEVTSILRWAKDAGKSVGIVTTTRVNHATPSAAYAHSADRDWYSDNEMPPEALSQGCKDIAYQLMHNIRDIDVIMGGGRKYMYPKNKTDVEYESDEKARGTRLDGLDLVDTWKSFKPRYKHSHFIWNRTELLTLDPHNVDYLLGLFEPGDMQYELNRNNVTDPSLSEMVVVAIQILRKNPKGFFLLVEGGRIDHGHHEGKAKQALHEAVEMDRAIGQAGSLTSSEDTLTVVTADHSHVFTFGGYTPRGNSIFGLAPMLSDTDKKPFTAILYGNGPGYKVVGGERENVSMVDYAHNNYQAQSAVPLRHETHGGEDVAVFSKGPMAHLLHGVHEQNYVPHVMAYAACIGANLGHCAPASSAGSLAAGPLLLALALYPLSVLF
# [18] = biological target: G-protein coupled receptor 55 (Homo sapiens, UniProt Q9Y2T6); assay: inhibition of LPI-stimulated GPR55 beta-arrestin translocation – imaging, U2OS, beta-arrestin-GFP, LPI agonist, primary screen (AID 2013); type: functional;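 also: antagonist potency measured as reduced agonist-driven arrestin aggregation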
# [19] = biological target: T2, E3 ubiquitin-protein ligase XIAP (Homo sapiens, UniProt P98170); assay: small molecules displacing peptide from XIAP – biochemical, IAP family, fluorescence polarization (AID 1018); type: functional
# [20] = biological target: T2, E3 ubiquitin-protein ligase XIAP; assay: Counter Screen using XIAP-Bir3 for Chemical Antagonists of Bir1/2 domains of IAP-family anti-apoptotic proteins. [Related pubchem assays (depositor defined):AID1018, AID1449, AID1514, AID1638, AID1749, AID1750, AID488957, AID488963]
# [21] = biological target: T3, Polyadenylate-binding protein 1 (Homo sapiens, UniProt P11940); assay: MLLE domain peptide-binding blockers, IC50 – biochemical, fluorescence polarization, FITC-PAM2 peptide, dose response (AID 602259); type: functional; details: read-out: IC50_Mean
# [22] = biological target: T3, Polyadenylate-binding protein 1; assay: MLLE binding blockers, Cy5 peptide tracer – biochemical, fluorescence polarization, Cy5-PAM2 peptide, secondary, miRNA deadenylation inhibitor project, dose response (AID 602260); type: functional; details: read-out: IC50_Mean
# [23] = biological target: Lysine-specific demethylase 4C (Homo sapiens, UniProt Q9H3R0); assay: inhibition of JMJD2C H3K9me3 demethylation – biochemical, DELFIA europium, cherry-picked samples, dose response (AID 488835); type: functional
# [24] = Trypanosoma cruzi growth suppression in host cells – NIH3T3 host cells, beta-gal luminescence, confirmation (AID 2044); type: functional, cell-based;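 also: intracellular parasites grown in NIH/3T3 mouse fibroblasts as host cells; luminescent beta-galactosidase reporter signal from transgenic T. cruzi replicating inside host cells; inhibitors lower the luminescence signal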
# [25] = NIH3T3 cell viability loss – ATP luminescence, mouse fibroblasts, counter-screen, dose response (AID 2010); type: functional, cell-based;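 also: cells exposed to compound for about 90 hours before reading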
# [26] = biological target: NACHT, LRR and PYD domains-containing protein 1 (Homo sapiens, UniProt Q9C000); assay: NALP1 inhibitors in yeast, dose response, luminescent (AID 488860); type: functional
# [27] = system: Saccharomyces cerevisiae; assay: S. cerevisiae Caspase-1/ASC signal blockers IC50, NALP1 inhibitor project selectivity test (AID 488863); type: functional, organism-based
# [28] = biological target: Cytochrome P450 2C19 (Homo sapiens, UniProt P33261); assay: Cytochrome panel assay with activity outcomes. Panel member name: p450-cyp2c19 Compounds with AC50 equal or less than 10 uM are considered active; type: functional
# [29] = biological target: T4, Cytochrome P450 1A2 (Homo sapiens, UniProt P05177);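 also: PubChem cytochrome P450 panel assay, CYP1A2 panel member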
# T4 sequence (P05177 whole entry): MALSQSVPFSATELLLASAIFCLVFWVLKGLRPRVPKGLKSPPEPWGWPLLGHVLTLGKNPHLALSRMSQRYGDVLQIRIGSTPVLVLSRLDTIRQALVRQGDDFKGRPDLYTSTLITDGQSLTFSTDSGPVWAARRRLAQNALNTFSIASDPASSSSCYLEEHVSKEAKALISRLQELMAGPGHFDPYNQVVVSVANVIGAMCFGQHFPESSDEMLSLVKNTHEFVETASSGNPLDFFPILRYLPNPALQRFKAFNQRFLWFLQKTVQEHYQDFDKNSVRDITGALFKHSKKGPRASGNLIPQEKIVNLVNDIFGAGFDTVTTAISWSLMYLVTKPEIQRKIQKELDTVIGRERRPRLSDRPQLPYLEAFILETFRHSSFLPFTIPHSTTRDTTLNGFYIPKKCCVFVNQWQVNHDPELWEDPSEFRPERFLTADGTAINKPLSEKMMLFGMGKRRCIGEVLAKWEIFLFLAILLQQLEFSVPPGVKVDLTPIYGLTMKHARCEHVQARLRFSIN
# [30] = biological target: Cytochrome P450 2C9 (Homo sapiens, UniProt P11712)
# [31] = biological target: Cytochrome P450 2D6 (Homo sapiens, UniProt P10635);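 also: CYP2D6 member of a cytochrome P450 panel assay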
# [32] = biological target: T5, Sphingosine 1-phosphate receptor 4 (Homo sapiens, UniProt O95977); assay: Fluorescence dose response cell-based high throughput screening assay for agonists of the Sphingosine 1-Phosphate Receptor 4 (S1P4). [Related pubchem assays: 1509 (Primary screen.), 1523 (Confirmation screen in triplicates.)]; type: functional
# T5 sequence (O95977 whole entry): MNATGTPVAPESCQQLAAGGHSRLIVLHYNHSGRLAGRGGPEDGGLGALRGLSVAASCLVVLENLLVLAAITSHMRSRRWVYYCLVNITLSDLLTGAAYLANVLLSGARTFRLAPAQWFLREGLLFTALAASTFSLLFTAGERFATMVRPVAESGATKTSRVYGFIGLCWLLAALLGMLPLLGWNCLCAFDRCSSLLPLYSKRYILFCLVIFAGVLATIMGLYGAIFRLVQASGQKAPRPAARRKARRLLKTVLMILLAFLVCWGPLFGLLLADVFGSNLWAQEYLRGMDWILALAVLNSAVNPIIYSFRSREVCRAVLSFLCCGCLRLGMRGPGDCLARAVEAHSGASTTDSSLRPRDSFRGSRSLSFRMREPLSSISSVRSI
# [33] = biological target: T6, Heat shock factor protein 1 (Mus musculus, UniProt P38532); assay: decrease of HSF1-responsive luciferase luminescence – cell-based, NIH3T3, dose retest, confirmation (AID 2382); type: functional;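 also: NIH3T3 fibroblasts with HSF1-driven luciferase reporter stressed by proteasome inhibitor MG132; luminescence from HSF1-driven luciferase expression after 8 hours of MG132 stress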
# T6 sequence (P38532 whole entry): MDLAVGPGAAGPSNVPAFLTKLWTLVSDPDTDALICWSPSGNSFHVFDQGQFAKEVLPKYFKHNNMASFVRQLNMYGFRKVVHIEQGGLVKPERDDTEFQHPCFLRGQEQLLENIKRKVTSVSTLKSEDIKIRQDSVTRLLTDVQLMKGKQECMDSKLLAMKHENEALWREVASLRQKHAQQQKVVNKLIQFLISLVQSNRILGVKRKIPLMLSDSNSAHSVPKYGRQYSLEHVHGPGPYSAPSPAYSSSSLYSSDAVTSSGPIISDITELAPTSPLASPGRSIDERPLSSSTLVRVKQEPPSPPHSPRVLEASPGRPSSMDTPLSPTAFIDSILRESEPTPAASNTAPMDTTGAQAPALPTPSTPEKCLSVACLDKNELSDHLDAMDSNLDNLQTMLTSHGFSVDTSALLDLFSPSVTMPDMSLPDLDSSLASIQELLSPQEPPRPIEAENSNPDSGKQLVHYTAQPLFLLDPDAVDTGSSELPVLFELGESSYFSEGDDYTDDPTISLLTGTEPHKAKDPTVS
# [34] = biological target: Sphingosine 1-phosphate receptor 1 (Homo sapiens, UniProt P21453); assay: Fluorescence-based counterscreen assay for S1P4 agonists: Cell-based dose response high throughput screening assay to identify agonists of the Sphingosine 1-Phosphate Receptor 1 (S1P1). [Related pubchem assays (depositor defined):AID1509, AID1523, AID1801, AID463107, AID463118, AID463119, AID463122, AID463123, AID463129, AID463225, AID504400, AID504460]; type: functional
# [35] = biological target: Glyceraldehyde-3-phosphate dehydrogenase (Homo sapiens, UniProt P04406)
# Glyceraldehyde-3-phosphate dehydrogenase, sequence (P04406 whole entry): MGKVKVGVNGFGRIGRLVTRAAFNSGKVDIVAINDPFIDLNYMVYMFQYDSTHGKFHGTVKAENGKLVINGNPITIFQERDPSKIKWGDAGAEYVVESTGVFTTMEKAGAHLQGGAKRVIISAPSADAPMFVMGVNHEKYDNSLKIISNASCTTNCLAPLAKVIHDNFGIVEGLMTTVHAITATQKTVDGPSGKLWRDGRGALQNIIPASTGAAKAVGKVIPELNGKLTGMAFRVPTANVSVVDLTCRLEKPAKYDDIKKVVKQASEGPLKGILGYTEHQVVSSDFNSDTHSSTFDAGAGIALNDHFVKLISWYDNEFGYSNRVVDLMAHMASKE
# T2 sequence (P98170 whole entry): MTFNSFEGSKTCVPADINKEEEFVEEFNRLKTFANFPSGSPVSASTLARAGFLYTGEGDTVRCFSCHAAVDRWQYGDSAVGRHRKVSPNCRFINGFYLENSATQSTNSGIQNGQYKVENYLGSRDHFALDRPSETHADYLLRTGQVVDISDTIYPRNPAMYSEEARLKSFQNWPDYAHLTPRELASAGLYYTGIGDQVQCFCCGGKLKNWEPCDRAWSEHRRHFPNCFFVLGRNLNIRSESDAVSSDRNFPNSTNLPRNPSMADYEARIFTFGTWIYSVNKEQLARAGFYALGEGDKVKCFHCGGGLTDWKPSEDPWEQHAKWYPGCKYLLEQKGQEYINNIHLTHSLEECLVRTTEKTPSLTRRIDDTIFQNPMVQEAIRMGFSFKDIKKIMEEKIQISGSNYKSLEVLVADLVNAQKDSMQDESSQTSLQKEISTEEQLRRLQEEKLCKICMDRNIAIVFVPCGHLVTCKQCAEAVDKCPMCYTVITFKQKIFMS
# T3 sequence (P11940 whole entry, the tested form may be a part): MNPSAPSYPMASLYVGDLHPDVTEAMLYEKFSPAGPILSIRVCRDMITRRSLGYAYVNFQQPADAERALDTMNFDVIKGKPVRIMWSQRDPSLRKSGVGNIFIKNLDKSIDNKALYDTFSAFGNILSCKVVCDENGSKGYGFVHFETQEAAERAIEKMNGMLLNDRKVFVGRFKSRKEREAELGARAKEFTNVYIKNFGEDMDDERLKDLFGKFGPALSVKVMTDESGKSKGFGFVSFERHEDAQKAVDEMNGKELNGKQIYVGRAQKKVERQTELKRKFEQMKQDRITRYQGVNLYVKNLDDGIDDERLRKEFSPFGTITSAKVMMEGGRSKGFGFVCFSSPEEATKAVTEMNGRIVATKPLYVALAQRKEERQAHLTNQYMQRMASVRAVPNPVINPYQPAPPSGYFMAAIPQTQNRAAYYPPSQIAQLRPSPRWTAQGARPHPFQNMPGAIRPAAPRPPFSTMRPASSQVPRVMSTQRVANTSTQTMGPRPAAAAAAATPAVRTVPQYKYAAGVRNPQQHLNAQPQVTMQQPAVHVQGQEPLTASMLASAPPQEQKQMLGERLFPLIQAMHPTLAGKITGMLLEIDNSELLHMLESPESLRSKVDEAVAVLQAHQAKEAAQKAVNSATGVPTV
# Sphingosine 1-phosphate receptor 1, sequence (P21453 whole entry): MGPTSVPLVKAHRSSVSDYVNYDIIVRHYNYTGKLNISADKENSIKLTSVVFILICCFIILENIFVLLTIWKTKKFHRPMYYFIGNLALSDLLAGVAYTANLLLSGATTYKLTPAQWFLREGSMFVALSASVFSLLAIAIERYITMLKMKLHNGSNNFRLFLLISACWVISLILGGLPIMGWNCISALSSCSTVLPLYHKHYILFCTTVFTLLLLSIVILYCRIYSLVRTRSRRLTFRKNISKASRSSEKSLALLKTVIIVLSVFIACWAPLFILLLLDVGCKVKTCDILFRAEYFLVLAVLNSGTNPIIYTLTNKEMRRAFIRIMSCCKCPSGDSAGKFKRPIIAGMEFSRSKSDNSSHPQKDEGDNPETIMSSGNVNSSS
# Alkaline phosphatase, placental type, sequence (P05187 whole entry): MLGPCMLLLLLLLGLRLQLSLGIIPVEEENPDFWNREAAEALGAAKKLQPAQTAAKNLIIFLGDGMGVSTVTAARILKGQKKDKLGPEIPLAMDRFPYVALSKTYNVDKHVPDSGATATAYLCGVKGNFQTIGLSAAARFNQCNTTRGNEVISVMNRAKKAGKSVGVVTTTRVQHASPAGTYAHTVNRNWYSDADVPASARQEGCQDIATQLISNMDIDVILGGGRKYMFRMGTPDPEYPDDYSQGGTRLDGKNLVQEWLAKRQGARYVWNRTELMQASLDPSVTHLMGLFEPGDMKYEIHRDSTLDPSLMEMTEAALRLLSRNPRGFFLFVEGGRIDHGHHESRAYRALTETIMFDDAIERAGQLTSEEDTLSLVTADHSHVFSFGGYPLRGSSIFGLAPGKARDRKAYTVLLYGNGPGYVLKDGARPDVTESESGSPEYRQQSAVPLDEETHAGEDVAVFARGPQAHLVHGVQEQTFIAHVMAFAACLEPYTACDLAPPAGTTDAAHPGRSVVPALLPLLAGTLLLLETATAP
# DNA damage-inducible transcript 3 protein, sequence (P35639 whole entry): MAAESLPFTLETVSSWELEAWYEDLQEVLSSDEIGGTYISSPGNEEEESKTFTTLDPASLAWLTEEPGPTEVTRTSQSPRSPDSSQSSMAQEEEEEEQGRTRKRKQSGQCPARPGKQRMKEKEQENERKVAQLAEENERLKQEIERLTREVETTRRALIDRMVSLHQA
# Cytochrome P450 2D6, sequence (P10635 whole entry): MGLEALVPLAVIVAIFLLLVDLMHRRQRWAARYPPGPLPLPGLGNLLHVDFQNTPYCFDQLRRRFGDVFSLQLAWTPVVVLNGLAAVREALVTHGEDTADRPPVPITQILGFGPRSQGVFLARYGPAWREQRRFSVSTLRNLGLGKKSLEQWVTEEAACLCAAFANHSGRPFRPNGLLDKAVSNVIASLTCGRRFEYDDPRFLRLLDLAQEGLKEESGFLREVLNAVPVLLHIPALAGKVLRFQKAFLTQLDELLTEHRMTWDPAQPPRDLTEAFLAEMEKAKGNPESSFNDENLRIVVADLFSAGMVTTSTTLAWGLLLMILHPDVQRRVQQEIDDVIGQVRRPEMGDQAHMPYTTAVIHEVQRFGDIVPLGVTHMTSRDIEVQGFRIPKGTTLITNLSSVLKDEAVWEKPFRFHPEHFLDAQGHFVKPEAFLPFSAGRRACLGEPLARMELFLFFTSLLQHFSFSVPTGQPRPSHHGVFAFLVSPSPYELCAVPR
# G-protein coupled receptor 55, sequence (Q9Y2T6 whole entry): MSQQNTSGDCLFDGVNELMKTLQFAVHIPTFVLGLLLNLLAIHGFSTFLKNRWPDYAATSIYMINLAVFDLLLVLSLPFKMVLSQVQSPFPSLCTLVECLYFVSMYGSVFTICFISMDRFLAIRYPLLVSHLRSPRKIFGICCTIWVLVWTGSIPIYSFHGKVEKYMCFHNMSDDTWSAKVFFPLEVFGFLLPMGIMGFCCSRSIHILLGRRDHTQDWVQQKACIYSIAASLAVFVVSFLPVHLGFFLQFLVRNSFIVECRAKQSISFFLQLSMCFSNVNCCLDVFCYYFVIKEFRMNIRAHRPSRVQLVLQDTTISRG
# Cytochrome P450 2C19, sequence (P33261 whole entry): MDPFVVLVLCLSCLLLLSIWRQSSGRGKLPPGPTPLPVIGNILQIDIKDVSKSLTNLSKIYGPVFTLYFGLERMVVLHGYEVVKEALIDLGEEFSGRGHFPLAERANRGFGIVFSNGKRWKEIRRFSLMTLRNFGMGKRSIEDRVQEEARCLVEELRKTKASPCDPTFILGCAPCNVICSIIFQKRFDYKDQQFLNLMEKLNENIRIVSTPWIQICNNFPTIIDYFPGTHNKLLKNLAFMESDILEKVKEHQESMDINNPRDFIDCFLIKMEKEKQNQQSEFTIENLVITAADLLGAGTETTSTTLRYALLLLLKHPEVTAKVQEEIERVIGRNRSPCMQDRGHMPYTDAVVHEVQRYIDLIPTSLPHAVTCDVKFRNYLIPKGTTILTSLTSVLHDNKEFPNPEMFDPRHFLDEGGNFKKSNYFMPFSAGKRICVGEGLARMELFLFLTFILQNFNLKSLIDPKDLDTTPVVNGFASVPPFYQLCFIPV
# Nucleotide-binding oligomerization domain-containing protein 2, sequence (Q9HC29 whole entry, the tested form may be a part): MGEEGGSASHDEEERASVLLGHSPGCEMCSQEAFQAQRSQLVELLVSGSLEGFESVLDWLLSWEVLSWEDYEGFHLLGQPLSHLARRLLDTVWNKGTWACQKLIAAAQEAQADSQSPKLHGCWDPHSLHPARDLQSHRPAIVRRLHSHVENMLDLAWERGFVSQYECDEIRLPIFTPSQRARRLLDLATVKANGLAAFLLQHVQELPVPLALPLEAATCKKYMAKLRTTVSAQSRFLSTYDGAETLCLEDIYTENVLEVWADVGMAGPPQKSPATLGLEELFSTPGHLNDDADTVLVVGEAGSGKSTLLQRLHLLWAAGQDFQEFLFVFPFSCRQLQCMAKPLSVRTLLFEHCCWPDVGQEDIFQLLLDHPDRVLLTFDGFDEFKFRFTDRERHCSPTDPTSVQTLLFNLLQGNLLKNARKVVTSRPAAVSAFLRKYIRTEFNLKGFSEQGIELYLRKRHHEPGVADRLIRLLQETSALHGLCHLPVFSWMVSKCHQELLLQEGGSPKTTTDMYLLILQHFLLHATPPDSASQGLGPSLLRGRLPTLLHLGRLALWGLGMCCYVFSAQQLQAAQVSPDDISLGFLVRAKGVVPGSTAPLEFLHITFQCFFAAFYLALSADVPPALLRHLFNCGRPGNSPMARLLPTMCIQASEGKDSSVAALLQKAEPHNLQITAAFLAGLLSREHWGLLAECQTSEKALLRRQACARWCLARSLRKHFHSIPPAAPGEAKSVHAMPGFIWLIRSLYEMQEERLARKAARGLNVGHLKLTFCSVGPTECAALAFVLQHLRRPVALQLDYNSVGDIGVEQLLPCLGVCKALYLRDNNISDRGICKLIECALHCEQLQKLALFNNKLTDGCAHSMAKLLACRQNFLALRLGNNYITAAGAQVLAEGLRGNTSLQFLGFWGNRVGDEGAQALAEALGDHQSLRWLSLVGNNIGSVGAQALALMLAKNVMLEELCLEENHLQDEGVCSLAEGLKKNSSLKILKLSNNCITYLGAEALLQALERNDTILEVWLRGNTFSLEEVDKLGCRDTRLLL
smiles,measurement,setting,value
COc1ccc(CNc2oc(-c3cccc4ccccc34)nc2C#N)cc1,Absolute IC50 (CHOP),[1],10 µM
CCOc1cccc(CNCCc2c(C)[nH]c3ccc(OC(F)(F)F)cc23)c1O,CC50,[2],6.17 µM (active)
same,AC50,[3],8.24 µM (active)
same,EC50,[4],11.2 µM (active)
same,AC50,[5],0.611 µM (active)
same,CC50,[6],5.75 µM (active)
same,CC50,[7],9.94 µM (active)
same,AC50,[8],18.1 µM (active)
same,EC50,[9],17.2 µM (active)
same,IC50,[10],10.5 µM (active)
same,EC50,[11],> 120 µM (not active)
O=C(Nc1ccc(CN2CCc3ccccc3C2)cc1)c1ccc(Cl)cc1,IC50,[12],> 20 µM (inactive)
same,IC50,[13],> 20 µM (inactive)
same,IC50,[14],> 20 µM (inactive)
same,IC50,[15],> 20 µM (inactive)
CCn1c(SCC(=O)c2ccc(O)c(O)c2)nnc1-c1ccc(Cl)cc1,IC50,[16],8.76 µM (active)
same,IC50,[17],> 100 µM (inactive)
O=C(O)c1ccc(Cl)c(S(=O)(=O)Nc2ccc(OCc3ccccc3)cc2)c1,IC50,[18],4.05 µM (active)
CCCS(=O)(=O)N1CCN(C(=O)c2ccc(-c3ccccc3)cc2)CC1,IC50,[19],> 100 µM (not active)
same,IC50,[20],> 100 µM (inactive)
CC1CN(S(=O)(=O)c2cccc(C(=O)Nc3ccc(S(=O)(=O)Nc4ncccn4)cc3)c2)CC(C)O1 (configuration not stated),IC50,[19],> 100 µM (not active)
same,IC50,[20],> 100 µM (inactive)
O=C(CSc1nc(O)c(Cc2ccccc2)c(=O)[nH]1)c1ccccc1,IC50,[21],52.5 µM (inactive)
same,IC50,[22],> 66 µM (inactive)
same,AC50,[23],16.9 µM (active)
COc1ccc(-c2nnc(NC(=O)c3ccc(S(=O)(=O)N4COCC4(C)C)cc3)o2)cc1,CC50,[2],7.22 µM (active)
same,EC50,[24],2.09 µM (active)
same,CC50,[6],8.49 µM (active)
same,CC50,[7],6.01 µM (active)
same,IC50,[10],6.25 µM (active)
same,EC50,[25],7.83 µM (active)
O=C(NNc1ccccc1[N+](=O)[O-])Nc1ccc(Cl)c(Cl)c1,Absolute IC50 (CHOP),[1],10 µM
CC(C)NC(=O)CCCOc1ccc(Cl)cc1Cl,IC50,[26],40 µM (active)
same,IC50,[27],35.8 µM (active)
CCCSc1ccc2nc(NC(=O)OC)[nH]c2c1 [ALBENDAZOLE],AC50,[28],inactive
same,AC50,[29],0.398 µM (active)
same,AC50,[30],inactive
same,AC50,[31],inactive
CCS(=O)(=O)N1CCCC(C(=O)NCCCOC(C)C)C1 (configuration not stated),AC50,[31],inconclusive
C/N=C1/S/C(=C\c2cc(C)n(-c3ccccc3F)c2C)C(=O)N1C,EC50,[32],0.844 µM (active)
same,EC50,[33],< 0.16 µM (active)
same,EC50,[34],1.18 µM (active)
CNC(=O)c1[nH]cnc1C(=O)N[C@@H](Cc1ccccc1)C(=O)OCc1ccccc1,EC50,[32],> 16.6 µM (not active)
same,EC50,[34],3.13 µM (active)
COc1ccc(CCc2nc(N)nn2-c2ccccc2)cc1OC,IC50,[16],> 100 µM (inactive)
same,IC50,[17],> 100 µM (inactive)
same,IC50,[35],> 100 µM (not active)

# Source: ChEMBL document CHEMBL1201862, “PubChem BioAssay data set” (2004)
